Converted amounts (≈) assume the structure as drawn.
Experiments:
Enterococcus faecalis [1] = test: Antibacterial activity against Enterococcus faecalis after 24 hrs by broth microdilution method; assay type: functional
Staphylococcus aureus [2] = test: Antibacterial activity against Staphylococcus aureus Smith after 24 hrs by broth microdilution method; assay type: functional
Staphylococcus aureus [3] = test: Antibacterial activity against methicillin-resistant Staphylococcus aureus clinical isolate after 24 hrs by broth microdilution method; assay type: functional
Staphylococcus aureus [4] = test: Antibacterial activity against methicillin-resistant and vancomycin-intermediate resistant Staphylococcus aureus clinical isolate after 24 hrs by broth microdilution method; assay type: functional
Staphylococcus aureus [5] = test: Antibacterial activity against vancomycin-intermediate resistant Staphylococcus aureus clinical isolate after 24 hrs by broth microdilution method; assay type: functional
Streptococcus pyogenes = test: Antibacterial activity against Streptococcus pyogenes C203 after 24 hrs by broth microdilution method; assay type: functional; details: C203, 24 h
Enterococcus faecalis [6] = test: Antibacterial activity against vancomycin A-resistant Enterococcus faecalis after 24 hrs by broth microdilution method; assay type: functional
Enterococcus faecium [7] = test: Antibacterial activity against Enterococcus faecium after 24 hrs by broth microdilution method; assay type: functional
Enterococcus faecium [8] = test: Antibacterial activity against vancomycin A-resistant Enterococcus faecium clinical isolate after 24 hrs by broth microdilution method; assay type: functional
Escherichia coli = test: Antibacterial activity against Escherichia coli SKF-12140 after 24 hrs by broth microdilution method; assay type: functional
Candida albicans = test: Antifungal activity against Candida albicans SKF-2270 after 24 hrs by broth microdilution method; assay type: functional
[9] = Toxicity assessed as hemolysis in erythrocytes at 180 mg/L; assay type: cell-based, Erythrocyte; details: human; for hemolysis at 180 mg/L: erythrocytes, read-out: Activity; for Activity: erythrocyte
[10] = Toxicity assessed as hemolysis in erythrocytes at 90 mg/L; assay type: cell-based, Erythrocyte; details: human; for hemolysis at 90 mg/L: erythrocytes, read-out: Activity; for Activity: erythrocyte

SMILES	MIC (Enterococcus faecalis [1]; read-out: MIC)	MIC (Staphylococcus aureus [2]; read-out: MIC)	MIC (Staphylococcus aureus [3]; read-out: MIC)	MIC (Staphylococcus aureus [4]; read-out: MIC)	MIC (Staphylococcus aureus [5])	MIC (Streptococcus pyogenes; read-out: MIC)	MIC (Enterococcus faecalis [6]; read-out: MIC)	MIC (Enterococcus faecium [7]; read-out: MIC)	MIC (Enterococcus faecium [8]; read-out: MIC)	MIC (Escherichia coli; read-out: MIC)	MIC (Candida albicans; read-out: MIC)	hemolysis at 180 mg/L [9]	hemolysis at 90 mg/L [10]	further results
CCCCCCCCCCCCCC(=O)N[C@@H](CC(N)=O)C(=O)NC[C@@H]1C(=O)N[C@H](c2ccc(O)cc2)C(=O)N[C@H](CCCN)C(=O)N[C@H](C(C)C)C(=O)N[C@@H](c2ccc(O)cc2)C(=O)N[C@H](c2ccc(O)cc2)C(=O)N[C@@H]([C@@H](C)O)C(=O)N[C@@H](Cc2ccccc2)C(=O)N[C@H](CCCN)C(=O)N[C@@H](c2ccc(O[C@H]3O[C@H](CO)[C@@H](O)[C@H](O)[C@@H]3O[C@H]3O[C@H](CO)[C@@H](O)[C@H](O)[C@@H]3O)cc2)C(=O)N[C@H]([C@@H](C)O)C(=O)N[C@@H](c2ccc(O)cc2)C(=O)NCC(=O)N[C@@H](CC(C)C)C(=O)N[C@H](C)C(=O)N[C@@H](c2ccc(O)c(Cl)c2)C(=O)O[C@@H]1C(N)=O	4 µg/mL (≈ 1.51 µM)	16 µg/mL (≈ 6.06 µM)	16 µg/mL (≈ 6.06 µM)	32 µg/mL (≈ 12.1 µM)	32 µg/mL (≈ 12.1 µM)	4 µg/mL (≈ 1.51 µM)	4 µg/mL (≈ 1.51 µM)	8 µg/mL (≈ 3.03 µM)	4 µg/mL (≈ 1.51 µM)	> 32 µg/mL	> 32 µg/mL	59%	2%	
CC(C)C[C@@H]1NC(=O)CNC(=O)[C@H](c2ccc(O)cc2)NC(=O)[C@@H]([C@@H](C)O)NC(=O)[C@H](c2ccc(O[C@H]3O[C@H](CO)[C@@H](O)[C@H](O)[C@@H]3O[C@H]3O[C@H](CO)[C@@H](O)[C@H](O)[C@@H]3O)cc2)NC(=O)[C@@H](CCCN)NC(=O)[C@H](Cc2ccccc2)NC(=O)[C@H]([C@@H](C)O)NC(=O)[C@@H](c2ccc(O)cc2)NC(=O)[C@H](c2ccc(O)cc2)NC(=O)[C@@H](C(C)C)NC(=O)[C@@H](CCCN)NC(=O)[C@@H](c2ccc(O)cc2)NC(=O)[C@@H](CNC(=O)[C@H](CC(N)=O)NC(=O)CCCc2ccccc2)[C@@H](C(N)=O)OC(=O)[C@H](c2ccc(O)c(Cl)c2)NC(=O)[C@@H](C)NC1=O	1 µg/mL (≈ 0.388 µM)	1 µg/mL (≈ 0.388 µM)	2 µg/mL (≈ 0.776 µM)	8 µg/mL (≈ 3.11 µM)	8 µg/mL (≈ 3.11 µM)	≤ 0.03 µg/mL	1 µg/mL (≈ 0.388 µM)	2 µg/mL (≈ 0.776 µM)	2 µg/mL (≈ 0.776 µM)	> 32 µg/mL	> 32 µg/mL	0%	0%	
CC(C)C[C@@H]1NC(=O)CNC(=O)[C@H](c2ccc(O)cc2)NC(=O)[C@@H]([C@@H](C)O)NC(=O)[C@H](c2ccc(O[C@H]3O[C@H](CO)[C@@H](O)[C@H](O)[C@@H]3O[C@H]3O[C@H](CO)[C@@H](O)[C@H](O)[C@@H]3O)cc2)NC(=O)[C@@H](CCCN)NC(=O)[C@H](Cc2ccccc2)NC(=O)[C@H]([C@@H](C)O)NC(=O)[C@@H](c2ccc(O)cc2)NC(=O)[C@H](c2ccc(O)cc2)NC(=O)[C@@H](C(C)C)NC(=O)[C@@H](CCCN)NC(=O)[C@@H](c2ccc(O)cc2)NC(=O)[C@@H](CNC(=O)[C@H](CC(N)=O)NC(=O)Cc2cccc3ccccc23)[C@@H](C(N)=O)OC(=O)[C@H](c2ccc(O)c(Cl)c2)NC(=O)[C@@H](C)NC1=O					0.0005 µg/mL (≈ 0.000192 µM)									MIC (Enterococcus faecalis [1]): 0.125 µg/mL (≈ 0.0481 µM); MIC (Staphylococcus aureus [2]): 0.25 µg/mL (≈ 0.0962 µM); MIC (Staphylococcus aureus [3]): 0.125 µg/mL (≈ 0.0481 µM); MIC (Staphylococcus aureus [4]): 1 µg/mL (≈ 0.385 µM); MIC (Streptococcus pyogenes): ≤ 0.03 µg/mL; MIC (Enterococcus faecalis [6]): 0.125 µg/mL (≈ 0.0481 µM); MIC (Enterococcus faecium [7]): 0.25 µg/mL (≈ 0.0962 µM); MIC (Enterococcus faecium [8]): 0.25 µg/mL (≈ 0.0962 µM); MIC (Escherichia coli): > 32 µg/mL; MIC (Candida albicans): > 32 µg/mL; Activity [9]: 28%; Activity [10]: 15%
CC(C)C[C@@H]1NC(=O)CNC(=O)[C@H](c2ccc(O)cc2)NC(=O)[C@@H]([C@@H](C)O)NC(=O)[C@H](c2ccc(O[C@H]3O[C@H](CO)[C@@H](O)[C@H](O)[C@@H]3O[C@H]3O[C@H](CO)[C@@H](O)[C@H](O)[C@@H]3O)cc2)NC(=O)[C@@H](CCCN)NC(=O)[C@H](Cc2ccccc2)NC(=O)[C@H]([C@@H](C)O)NC(=O)[C@@H](c2ccc(O)cc2)NC(=O)[C@H](c2ccc(O)cc2)NC(=O)[C@@H](C(C)C)NC(=O)[C@@H](CCCN)NC(=O)[C@@H](c2ccc(O)cc2)NC(=O)[C@@H](CNC(=O)[C@H](CC(N)=O)NC(=O)Cc2ccccc2)[C@@H](C(N)=O)OC(=O)[C@H](c2ccc(O)c(Cl)c2)NC(=O)[C@@H](C)NC1=O	0.004 µg/mL (≈ 0.00157 µM)	0.002 µg/mL (≈ 0.000785 µM)	0.002 µg/mL (≈ 0.000785 µM)		0.008 µg/mL (≈ 0.00314 µM)		0.004 µg/mL (≈ 0.00157 µM)	0.008 µg/mL (≈ 0.00314 µM)	0.004 µg/mL (≈ 0.00157 µM)					MIC (Staphylococcus aureus [4]): 16 µg/mL (≈ 6.28 µM); MIC (Streptococcus pyogenes): 0.06 µg/mL (≈ 0.0235 µM); MIC (Escherichia coli): > 32 µg/mL; MIC (Candida albicans): > 32 µg/mL; Activity [9]: 0%; Activity [10]: 0%
CCCCCCCCC(=O)N[C@@H](CC(N)=O)C(=O)NC[C@@H]1C(=O)N[C@H](c2ccc(O)cc2)C(=O)N[C@H](CCCN)C(=O)N[C@H](C(C)C)C(=O)N[C@@H](c2ccc(O)cc2)C(=O)N[C@H](c2ccc(O)cc2)C(=O)N[C@@H]([C@@H](C)O)C(=O)N[C@@H](Cc2ccccc2)C(=O)N[C@H](CCCN)C(=O)N[C@@H](c2ccc(O[C@H]3O[C@H](CO)[C@@H](O)[C@H](O)[C@@H]3O[C@H]3O[C@H](CO)[C@@H](O)[C@H](O)[C@@H]3O)cc2)C(=O)N[C@H]([C@@H](C)O)C(=O)N[C@@H](c2ccc(O)cc2)C(=O)NCC(=O)N[C@@H](CC(C)C)C(=O)N[C@H](C)C(=O)N[C@@H](c2ccc(O)c(Cl)c2)C(=O)O[C@@H]1C(N)=O	0.06 µg/mL (≈ 0.0233 µM)	0.25 µg/mL (≈ 0.0973 µM)	1 µg/mL (≈ 0.389 µM)	8 µg/mL (≈ 3.11 µM)	4 µg/mL (≈ 1.56 µM)	0.125 µg/mL (≈ 0.0486 µM)	0.06 µg/mL (≈ 0.0233 µM)	0.125 µg/mL (≈ 0.0486 µM)	< 0.03 µg/mL	> 32 µg/mL	> 32 µg/mL	5%	0%	
CCCCOc1ccc(C(=O)N[C@@H](CC(N)=O)C(=O)NC[C@@H]2C(=O)N[C@H](c3ccc(O)cc3)C(=O)N[C@H](CCCN)C(=O)N[C@H](C(C)C)C(=O)N[C@@H](c3ccc(O)cc3)C(=O)N[C@H](c3ccc(O)cc3)C(=O)N[C@@H]([C@@H](C)O)C(=O)N[C@@H](Cc3ccccc3)C(=O)N[C@H](CCCN)C(=O)N[C@@H](c3ccc(O[C@H]4O[C@H](CO)[C@@H](O)[C@H](O)[C@@H]4O[C@H]4O[C@H](CO)[C@@H](O)[C@H](O)[C@@H]4O)cc3)C(=O)N[C@H]([C@@H](C)O)C(=O)N[C@@H](c3ccc(O)cc3)C(=O)NCC(=O)N[C@@H](CC(C)C)C(=O)N[C@H](C)C(=O)N[C@@H](c3ccc(O)c(Cl)c3)C(=O)O[C@@H]2C(N)=O)cc1	0.25 µg/mL (≈ 0.0959 µM)	0.25 µg/mL (≈ 0.0959 µM)	0.5 µg/mL (≈ 0.192 µM)	4 µg/mL (≈ 1.53 µM)	4 µg/mL (≈ 1.53 µM)	0.125 µg/mL (≈ 0.048 µM)	0.25 µg/mL (≈ 0.0959 µM)	0.25 µg/mL (≈ 0.0959 µM)	0.25 µg/mL (≈ 0.0959 µM)	> 32 µg/mL	> 32 µg/mL	5%	0%	
CCCCc1ccc(C(=O)N[C@@H](CC(N)=O)C(=O)NC[C@@H]2C(=O)N[C@H](c3ccc(O)cc3)C(=O)N[C@H](CCCN)C(=O)N[C@H](C(C)C)C(=O)N[C@@H](c3ccc(O)cc3)C(=O)N[C@H](c3ccc(O)cc3)C(=O)N[C@@H]([C@@H](C)O)C(=O)N[C@@H](Cc3ccccc3)C(=O)N[C@H](CCCN)C(=O)N[C@@H](c3ccc(O[C@H]4O[C@H](CO)[C@@H](O)[C@H](O)[C@@H]4O[C@H]4O[C@H](CO)[C@@H](O)[C@H](O)[C@@H]4O)cc3)C(=O)N[C@H]([C@@H](C)O)C(=O)N[C@@H](c3ccc(O)cc3)C(=O)NCC(=O)N[C@@H](CC(C)C)C(=O)N[C@H](C)C(=O)N[C@@H](c3ccc(O)c(Cl)c3)C(=O)O[C@@H]2C(N)=O)cc1	0.25 µg/mL (≈ 0.0965 µM)	0.25 µg/mL (≈ 0.0965 µM)	0.5 µg/mL (≈ 0.193 µM)	4 µg/mL (≈ 1.54 µM)	2 µg/mL (≈ 0.772 µM)	< 0.03 µg/mL	0.25 µg/mL (≈ 0.0965 µM)	0.25 µg/mL (≈ 0.0965 µM)	0.25 µg/mL (≈ 0.0965 µM)	> 32 µg/mL	> 32 µg/mL	91%	47%	
CC(C)C[C@@H]1NC(=O)CNC(=O)[C@H](c2ccc(O)cc2)NC(=O)[C@@H]([C@@H](C)O)NC(=O)[C@H](c2ccc(O[C@H]3O[C@H](CO)[C@@H](O)[C@H](O)[C@@H]3O[C@H]3O[C@H](CO)[C@@H](O)[C@H](O)[C@@H]3O)cc2)NC(=O)[C@@H](CCCN)NC(=O)[C@H](Cc2ccccc2)NC(=O)[C@H]([C@@H](C)O)NC(=O)[C@@H](c2ccc(O)cc2)NC(=O)[C@H](c2ccc(O)cc2)NC(=O)[C@@H](C(C)C)NC(=O)[C@@H](CCCN)NC(=O)[C@@H](c2ccc(O)cc2)NC(=O)[C@@H](CNC(=O)[C@H](CC(N)=O)NC(=O)Cc2ccc(O)cc2)[C@@H](C(N)=O)OC(=O)[C@H](c2ccc(O)c(Cl)c2)NC(=O)[C@@H](C)NC1=O	> 32 µg/mL	> 32 µg/mL	> 32 µg/mL	> 32 µg/mL	> 32 µg/mL	1 µg/mL (≈ 0.39 µM)		> 32 µg/mL		> 32 µg/mL	> 32 µg/mL	0%	0%	

— ChEMBL document CHEMBL1145390, “Synthesis and preliminary biological characterization of new semisynthetic derivatives of ramoplanin” (J Med Chem, 2007)
